Read-outs that look alike come from different tables or passages of the source.

Assay [1] relates to I-SceI:GR. The protocol:
(§1) Embryos isolated from selfed plants containing the TL and DL were placed onto a regeneration medium according to Ishida et al. (Ishida et al., 1996) lacking the kanamycin selective agent. For first experiment, LS-AS medium was complemented by 0, 30 or 50 μM dexamethasone and after one week transferred sequentially to LSD1.5, LSZ and ½LSF medium lacking dexamethasone and containing 50 mg·L−1 of kanamycin. For the second experiment, callus was developed for 3 days on LS-AS, 1 week on LSD1.5 and 3 weeks on LSZ medium. Then, callus was cultivated 1 week on LSZ medium complemented by 0 μM, 30 μM or 50 μM of dexamethasone and selected for 2 weeks on LSZ and then ½ LSF medium complemented by 50 mg·L−1 of kanamycin. GFP fluorescence of callus was visualized under the fluorescence stereomicroscope (Leica MZ16F) with a GFP2 filter.
Plant regeneration from maize leaves has not been reported but calli derived from immature maize embryos are routinely used to regenerate plants (Lu et al., 1983). Embryos isolated from immature kernels of selfed F2 plants containing the TL and the DL were placed on callus induction medium with dexamethasone at 0 μM (control), 30 μM or 50 μM.

The test system of assay [2] is I-SceI:GR. To be noted: one week. The protocol: as §1

For the compound `C[C@@H]1C[C@H]2[C@@H]3CCC4=CC(=O)C=C[C@]4(C)[C@@]3(F)[C@@H](O)C[C@]2(C)[C@@]1(O)C(=O)CO` [Dexamethasone, dexamethasone], the “GT Frequency, discovered kanamycin resistant events/extracted embryos” value in the assay on I-SceI:GR [1] (TL1 × DL, 30 μM) was found to be 0.39%; with I-SceI:GR [1] (TL1 × DL, 50 μM), 0.55%; in the assay with I-SceI:GR [1] (TL2 × DL, 30 μM), 0.53%; with I-SceI:GR [1] (TL2 × DL, 50 μM), 0.27%. In addition, the “Number of kanamycin resistant events” value is listed as 1 in the assay with I-SceI:GR [1] (TL1 × DL, 181 extracted embryos, 50 μM); 1 in the assay on I-SceI:GR [1] (TL1 × DL, 255 extracted embryos, 30 μM in callus induction medium); 1 with I-SceI:GR [1] (TL2 × DL, 374 extracted embryos, 50 μM); 3 in the assay with I-SceI:GR [1] (TL2 × DL, 563 extracted embryos, 30 μM). For the same compound, the “Mutations in TL I-SceI site” value with I-SceI:GR [2] (TL1/DL calli, 30 μM) stood at 76; with I-SceI:GR [2] (TL1/DL calli, 50 μM), 76; with I-SceI:GR [2] (TL2/DL calli, 30 μM), 15; with I-SceI:GR [2] (TL2/DL calli, 50 μM) it was 36.

(Values after patent publication US20150189844A1, “METHOD FOR […] RECOMBINATION” (Biogemma, priority 2012, published 2015).)
